Measured values: patent US5047242A, “Azadirachtin derivative insecticides” (Native Plant Institute ("NPI"), priority 1987, dated 1991)

Key:
Heliothis virescens [1] = test: Relative activity of UV-irradiated compounds in inhibiting pupal development of fifth-instar larvae; type: in vivo; conditions: for Relative activity, inhibition of pupal development: relative to non-irradiated counterpart
Experimental: (§1) Azadirachtin, 3-deacetylazadirachtin, 22,23-dihydroazadirachtin, and 2',3',22,23-tetrahydroazadirachtin (1.0 mg/ml absolute ethanol) were placed individually in capped quartz NMR tubes (5×180 mm) and were irradiated with two UV germicidal lights (GE, G30T8, 200-280 nm, 30W) 1.8 m from the source at room temperature for up to 400 h. The controls were identical samples protected from exposure to UV radiation by wrapping with aluminum foil. At selected time intervals, aliquots from both the controls (non-irradiated) and irradiated samples were removed for high-performance liquid chromatography (HPLC) analysis and bioassay (vide infra).
(§2) Individual larvae were injected per os on the first day of the fifth instar with 1.0 μg of either irradiated or non-irradiated compounds dissolved in 1.0 μl of 75% aqueous ethanol.
Table 3: Relative activity of azadirachtin, 3deacetylaza-dirachtin,
22,23dihydroazadirachtin, and 2',3',22,23tetrahydroazadirachtin, all of
which had been exposed for 15, 30, 90, 200, and 400 hours to UV radiation
inhibiting the pupal development of fifthinstar Heliothis virescens
(§3) larvae. Relative activity is defined as the percentage of larvae injected

Heliothis virescens [2] = test: Artificial diet feeding bioassay, mortality and growth inhibition in first-instar larvae; type: in vivo, Heliothis virescens (tobacco budworm); conditions: Table 1; first-instar Heliothis virescens larvae, artificial diet; parentheses = 95% confidence limits
Text: The results of the growth inhibitory and lethal activities of azadirachtin and these 8 derivatives when fed in an artificial diet to Heliothis virescens larvae are shown in Table 1. Similar to the results of Morgan, E. D., in "Natural pesticides from the Neem tree (Azadirachta indica A. Juss), Schmutterer, H., et al., Eds., Proc. First International Neem Conference (Rottach-Egern, 1980), German Agency for Technical Corporation,Eschborn, Germany, 1982, pps. 43-52 (hereinafter "Morgan"), neither deacetylation nor hydrogenation of the carbon-carbon double bond of the dihydrofuran ring moiety of azadirachtin had any significant effect on activity of the compound against H. virescens.
Mortality and growth inhibition in first-instar Heliothis
virescens larvae fed azadirachtin and eight derivatives in an
artificial diet (I. Kubo and J. A. Klocke, In: Plant Resistance to
Insects (P. A. Helin, Ed.), ACS Symposium Series 208, American Chemical
Society, Washington, D.C. (1983), pp. 329-346.).^a
^b LC50 values are the concentrations (ppm) causing 50%
^c EC50 values are the concentrations (ppm) causing 50% growth
^d Numbers in parentheses are the 95% confidence limits determined
using the methods of Litchfield and Wilcoxon, J. Pharmacol. Exp. Ther.
An artificial diet feeding bioassay with neonate larvae of tobacco budworm (Heliothis virescens) and fall armyworm (Spodoptera frugiperda) was used as previously described (Kubo and Klocke, 1983) to detect insecticidal activities in the plant extracts to monitor fractionation, and to determine the potency of the isolated constituents and derivatives. Potency was determined either as the effective concentration (EC50) of added material that is necessary to reduce larval growth to 50% of the control values or as the lethal concentration (LC50) of added material that is necessary to kill 50% of the treated larvae. EC50 and LC50 values were determined from log probit paper and analyzed statistically by the method of Litchfield and Wilcoxon, supra.

Heliothis virescens [3] = test: Oral injection of fifth-instar larvae, pupal and adult development (non-irradiated compounds); type: in vivo
Experimental: as §2
Table 2: Successful and unsuccessful pupal and adult development of
fifthinstar Heliothis Virescens larvae injected orally with 1.0 microgram
of either azadirachtin, 3deacetylazadirachtin, 22,23dihydroazadirachtin,
or 2',3',22,23tetrahydroazadirachtin.

Heliothis virescens [4] = test: Relative activity of UV-irradiated compounds in inhibiting adult development of fifth-instar larvae; type: in vivo; conditions: for Relative activity, inhibition of adult development: relative to non-irradiated counterpart
Experimental: as §1, §2
Table 4: Relative activity of azadirachtin, 3deacetylaza-dirachtin,
22,23dihydroazadirachtin, 2',3',22,23tetrahydroaza-dirachtin, all of whic
had been exposed for 15, 30, 90, 200, and 400 hours to UV radiation, in
inhibiting the adult development of fifthinstar Heliothis virescens
as §3
relative to the percentage injected with its nonirradiated counterpart

[5] = UV stability in ethanol by reversed phase HPLC; type: physicochemical
Experimental: Stability of Azadirachtin derivatives was determined as follows:
as §1
Analytical reversed phase HPLC was performed on a phenyl (5μm) column run isocratically with acetonitrile-water (3:7) (Yamasaki et al.) Peaks were detected at 214 nm. The irradiated samples were compared with their corresponding non-UV-irradiated controls by measuring the height of the peak eluting at the appropriate Rt for each irradiated compound relative to each one's non-irradiated control. Results are expressed as the percent of the initial sample concentration remaining relative to the control. Each time point was done in at least triplicate fashion.

[6] = 1.0 microgram injected orally, fifth-instar, non-irradiated
[7] = 1.0 microgram injected orally, % of larvae

For `C/C=C(\C)C(=O)OC1CC(O)C2(C(=O)OC)COC3C2C12COC(O)(C(=O)OC)C2C(C)(C12OC1(C)C1CC2OC2OC=CC21O)C3O` (stereo not shown) [3-deacetylazadirachtin], the “Relative activity, inhibition of pupal development” value (Heliothis virescens [1]; 15 h UV exposure) was 115.2%, the “Relative activity, inhibition of pupal development” value (Heliothis virescens [1]; 30 h UV exposure) was 135.0% and the “activity retained after 90 h of exposure to UV radiation (in words)” value (Heliothis virescens [1]; 90 h UV) was “retained full activity”. The “Relative activity, inhibition of pupal development” value (Heliothis virescens [1]; 90 h UV exposure) was 139.5%, the “ability to inhibit pupation after UV (in words)” value (from here on “ability to inhibit pupation”) (Heliothis virescens [1]; 200 h UV) was “did decline” and the “Relative activity, inhibition of pupal development” value (Heliothis virescens [1]; 200 h UV exposure) was 86.8%. The “ability to inhibit pupation” value (Heliothis virescens [1]; 400 h UV) was “even greater decline”, the “activity retained after 400 h of exposure to UV radiation” value (Heliothis virescens [1]; 400 h UV) was “approximately 50%” and the “Relative activity, inhibition of pupal development” value (Heliothis virescens [1]; 400 h UV exposure) was 41.0%. The “ability to inhibit pupation” value (Heliothis virescens [1]; up to 90 h UV) was “not appreciably reduced”, the “EC50 (concentration causing 50% growth inhibition)” value (Heliothis virescens [2]) was 0.09 (0.05-0.17) ppm and the “Number Adults” value (Heliothis virescens [3]; [6]) was 10 Number. For the same molecule, the “Number Adults Deformed” value (Heliothis virescens [3]; [6]) was 10 Number, the “Number Pupae” value (Heliothis virescens [3]; [6]) was 56 Number and the “Unsuccessful Larvae-Pupae (number)” value (Heliothis virescens [3]; [6]) was 13 Number. For the same molecule, the “Unsuccessful Pupae-Adult (number)” value (Heliothis virescens [3]; [6]) was 4 Number, the “Adults (%)” value (Heliothis virescens [3]; [7]) was 5.9% and the “Adults Deformed (%)” value (Heliothis virescens [3]; [7]) was 5.9%. For the same molecule, the “Pupae (%)” value (Heliothis virescens [3]; [7]) was 33.1%, the “Unsuccessful Larvae-Pupae (%)” value (Heliothis virescens [3]; [7]) was 7.7% and the “Unsuccessful Pupae-Adult (%)” value (Heliothis virescens [3]; [7]) was 2.4%. The “inhibition of pupation (in words)” value (Heliothis virescens [3]; non-irradiated, 1.0 μg per os) was “less effective”, the “Relative activity, inhibition of adult development” value (Heliothis virescens [4]; 15 h UV exposure) was 103.2% and the “Relative activity, inhibition of adult development” value (Heliothis virescens [4]; 30 h UV exposure) was 106.3%. For the same molecule, the “Relative activity, inhibition of adult development” value (Heliothis virescens [4]; 90 h UV exposure) was 106.3%, the “ability to inhibit larvae from reaching the adult stage after UV (in words)” value (Heliothis virescens [4]; 200 h UV) was “remained substantially unchanged until 400 h of irradiation” and the “Relative activity, inhibition of adult development” value (Heliothis virescens [4]; 200 h UV exposure) was 96.0%. The “Relative activity, inhibition of adult development” value (Heliothis virescens [4]; 400 h UV exposure) was 72.3%, the “degradation following 400 h of exposure to UV radiation (in words)” value [5] was “none of the three compounds remained in their original state” and the “kinetics of UV degradation (in words)” value [5] was “first-order reaction”. For the same molecule, the “UV lability (in words)” value ([5]; UV irradiation, HPLC) was “UV-labile”.
